Measured values published in ChEMBL document CHEMBL3352200, “Thio-sugar motif of functional CARB-pharmacophore for antineoplastic activity. Part 2” (Bioorg Med Chem Lett, 2014).
pIC50: −log10 of the molar value.

Assays:
A549 [1] = assay: Cytotoxicity against human A549 cells after 14 hrs by CCK-8 assay; type: functional, cell-based; conditions: A549, 14 h
LoVo [2] = assay: Induction of apoptosis in human LoVo cells assessed as viable cells at 17 uM after 4 hrs by FITC Annexin-V/propidium iodide staining-based flow cytometry (reference value: 79.50%); type: functional; conditions: read-out: Activity
MCF7 [3] = assay: Induction of apoptosis in human MCF7 cells assessed as viable cells at 4.3 uM after 4 hrs by FITC Annexin-V/propidium iodide staining-based flow cytometry (reference value: 70.40%); type: functional; conditions: MCF7, 4 h, read-out: Activity
HeLa [4] = assay: Induction of apoptosis in human HeLa cells assessed as viable cells at 8.6 uM after 4 hrs by FITC Annexin-V/propidium iodide staining-based flow cytometry (reference value: 87.00%); type: functional; conditions: read-out: Activity
LoVo [5] = assay: Cytotoxicity against human LoVo cells after 14 hrs by CCK-8 assay; type: functional, cell-based
MCF7 [6] = assay: Induction of apoptosis in human MCF7 cells assessed as apoptotic cells at 4.3 uM after 4 hrs by FITC Annexin-V/propidium iodide staining-based flow cytometry (reference value: 29.60%); type: functional
A549 [7] = assay: Induction of apoptosis in human A549 cells assessed as viable cells at 69 uM after 4 hrs by FITC Annexin-V/propidium iodide staining-based flow cytometry (reference value: 84.40%); type: functional; conditions: A549, 4 h, read-out: Activity
LoVo [8] = assay: Induction of apoptosis in human LoVo cells assessed as viable cells at 137 uM after 4 hrs by FITC Annexin-V/propidium iodide staining-based flow cytometry (reference value: 79.50%); type: functional; conditions: read-out: Activity
[9] = Lipophilicity, log P of the compound; type: physicochemical; conditions: octanol/water
A549 [10] = assay: Induction of apoptosis in human A549 cells assessed as apoptotic cells at 69 uM after 4 hrs by FITC Annexin-V/propidium iodide staining-based flow cytometry (reference value: 15.60%); type: functional
HeLa [11] = assay: Induction of apoptosis in human HeLa cells assessed as apoptotic cells at 69 uM after 4 hrs by FITC Annexin-V/propidium iodide staining-based flow cytometry (reference value: 13.00%); type: functional
HeLa [12] = assay: Cytotoxicity against human HeLa cells after 14 hrs by CCK-8 assay; type: functional, cell-based
MCF7 [13] = assay: Induction of apoptosis in human MCF7 cells assessed as viable cells at 34 uM after 4 hrs by FITC Annexin-V/propidium iodide staining-based flow cytometry (reference value: 70.40%); type: functional; conditions: MCF7, 4 h, read-out: Activity
MCF7 [14] = assay: Cytotoxicity against human MCF7 cells after 14 hrs by CCK-8 assay; type: functional, cell-based; conditions: MCF7, 14 h
A549 [15] = assay: Induction of apoptosis in human A549 cells assessed as viable cells at 8.6 uM after 4 hrs by FITC Annexin-V/propidium iodide staining-based flow cytometry (reference value: 84.40%); type: functional; conditions: A549, 4 h, read-out: Activity
LoVo [16] = assay: Induction of apoptosis in human LoVo cells assessed as apoptotic cells at 137 uM after 4 hrs by FITC Annexin-V/propidium iodide staining-based flow cytometry (reference value: 20.50%); type: functional
[17] = Cytotoxicity against human PNT2 cells at 8.6 to 2200 uM after 14 hrs by CCK-8 assay; type: cell-based; conditions: pnt2, 14 h
HeLa [18] = assay: Induction of apoptosis in human HeLa cells assessed as apoptotic cells at 8.6 uM after 4 hrs by FITC Annexin-V/propidium iodide staining-based flow cytometry (reference value: 13.00%); type: functional
A549 [19] = assay: Induction of apoptosis in human A549 cells assessed as apoptotic cells at 8.6 uM after 4 hrs by FITC Annexin-V/propidium iodide staining-based flow cytometry (reference value: 15.60%); type: functional
LoVo [20] = assay: Induction of apoptosis in human LoVo cells assessed as apoptotic cells at 17 uM after 4 hrs by FITC Annexin-V/propidium iodide staining-based flow cytometry (reference value: 20.50%); type: functional
HeLa [21] = assay: Induction of apoptosis in human HeLa cells assessed as viable cells at 69 uM after 4 hrs by FITC Annexin-V/propidium iodide staining-based flow cytometry (reference value: 87.00%); type: functional; conditions: read-out: Activity
MCF7 [22] = assay: Induction of apoptosis in human MCF7 cells assessed as apoptotic cells at 34 uM after 4 hrs by FITC Annexin-V/propidium iodide staining-based flow cytometry (reference value: 29.60%); type: functional
MCF7 [23] = assay: Induction of apoptosis in human MCF7 cells assessed as viable cells at 275 uM after 4 hrs by FITC Annexin-V/propidium iodide staining-based flow cytometry (reference value: 70.40%); type: functional; conditions: MCF7, 4 h, read-out: Activity
A549 [24] = assay: Induction of apoptosis in human A549 cells assessed as viable cells at 550 uM after 4 hrs by FITC Annexin-V/propidium iodide staining-based flow cytometry (reference value: 84.40%); type: functional; conditions: A549, 4 h, read-out: Activity
HeLa [25] = assay: Induction of apoptosis in human HeLa cells assessed as apoptotic cells at 550 uM after 4 hrs by FITC Annexin-V/propidium iodide staining-based flow cytometry (reference value: 13.00%); type: functional
LoVo [26] = assay: Induction of apoptosis in human LoVo cells assessed as apoptotic cells at 550 uM after 4 hrs by FITC Annexin-V/propidium iodide staining-based flow cytometry (reference value: 20.50%); type: functional
MCF7 [27] = assay: Induction of apoptosis in human MCF7 cells assessed as apoptotic cells at 275 uM after 4 hrs by FITC Annexin-V/propidium iodide staining-based flow cytometry (reference value: 29.60%); type: functional
LoVo [28] = assay: Induction of apoptosis in human LoVo cells assessed as apoptotic cells at 69 uM after 4 hrs by FITC Annexin-V/propidium iodide staining-based flow cytometry (reference value: 20.50%); type: functional
LoVo [29] = assay: Induction of apoptosis in human LoVo cells assessed as viable cells at 69 uM after 4 hrs by FITC Annexin-V/propidium iodide staining-based flow cytometry (reference value: 79.50%); type: functional; conditions: read-out: Activity
A549 [30] = assay: Induction of apoptosis in human A549 cells assessed as apoptotic cells at 550 uM after 4 hrs by FITC Annexin-V/propidium iodide staining-based flow cytometry (reference value: 15.60%); type: functional
LoVo [31] = assay: Induction of apoptosis in human LoVo cells assessed as viable cells at 550 uM after 4 hrs by FITC Annexin-V/propidium iodide staining-based flow cytometry (reference value: 79.50%); type: functional; conditions: read-out: Activity
HeLa [32] = assay: Induction of apoptosis in human HeLa cells assessed as viable cells at 550 uM after 4 hrs by FITC Annexin-V/propidium iodide staining-based flow cytometry (reference value: 87.00%); type: functional; conditions: read-out: Activity

Row | SMILES | pIC50 (A549 [1]) | pIC50 (LoVo [5]) | viability at 69 µM (A549 [7]) [%] | logP [9] | Activity (A549 [10]) [%] | Activity (HeLa [11]) [%] | pIC50 (HeLa [12]) | viability at 34 µM (MCF7 [13]) [%] | pIC50 (MCF7 [14]) | Activity [17] [%] | viability at 69 µM (HeLa [21]) [%] | Activity (MCF7 [22]) [%] | other results
1 | CC(=O)OC[C@H]1O[C@@H](S[C@H]2CC(=O)[C@@H]3OC[C@H]2O3)[C@H](OC(C)=O)[C@@H](OC(C)=O)[C@@H]1OC(C)=O | 3.92 | 3.78 | 75.8 | -1.13 | 24.2 | 36.9 | 4.04 | 68.8 | 4.33 | 10 | 63.1 | 31.25 | viability at 17 µM (LoVo [2]): 72.5%; viability at 4.3 µM (MCF7 [3]): 63.1%; viability at 8.6 µM (HeLa [4]): 80%; Activity (MCF7 [6]): 36.9%; viability at 137 µM (LoVo [8]): 69.7%; viability at 8.6 µM (A549 [15]): 76.4%; Activity (LoVo [16]): 30.3%; Activity (HeLa [18]): 20%; Activity (A549 [19]): 23.6%; Activity (LoVo [20]): 27.55%
2 | O=C1C[C@H](S[C@@H]2O[C@H](CO)[C@@H](O)[C@H](O)[C@H]2O)[C@H]2CO[C@@H]1O2 | 3.16 | 3.11 | 70.3 | -2.05 | 29.7 | 17.4 | 2.97 | 75.1 | 3.44 | 10 | 82.6 | 24.9 | viability at 275 µM (MCF7 [23]): 26.4%; viability at 550 µM (A549 [24]): 74.3%; Activity (HeLa [25]): 32.8%; Activity (LoVo [26]): 37.65%; Activity (MCF7 [27]): 73.6%; Activity (LoVo [28]): 29%; viability at 69 µM (LoVo [29]): 71%; Activity (A549 [30]): 25.7%; viability at 550 µM (LoVo [31]): 62.4%; viability at 550 µM (HeLa [32]): 67.2%
